Data from patent US20230019236A1, “PROTEIN TYROSINE PHOSPHATASE INHIBITORS AND METHODS OF USE THEREOF” (Calico Life Sciences LLC, priority 2019, published 2023).
Read-outs that look alike come from different tables or passages of the source.

How the values were obtained:
[1] = test system: B16F10 mouse melanoma cells; assay: B16F10 IFNγ-induced cellular growth inhibition assay; assay type: cell-based; conditions: Mus musculus, B16-F10, compound 33 μM, Table 3
Procedure: Example 294: B16F10 IFNγ-Induced Cellular Growth Inhibition Assay
B16F10 mouse melanoma cells (ATCC Cat# CRL-6475, Manassas, Va.) were seeded at a density of 500 cells per well in a 384-well clear bottom plate (Corning Cat#3765, Corning, N.Y.) in 25 μL total volume of DMEM+10% FBS (Sigma Cat# D6429 and Sigma Cat# F4135, St. Louis, MO). Cells were allowed to adhere overnight at 37° C. +5% CO2. On the following day, 12.5 μL of mouse IFNγ (RD systems Cat# 485-MI/CF, Minneapolis, Minn.) was added to half of the plate (columns 13-24) at a concentration of 2 ng/mL for a final assay concentration of 0.5 ng/mL of IFNγ. Media only (12.5 μL of DMEM+10% FBS) was added to the remainder of the plate (columns 1-12). Next, compounds resuspended in DMSO (Sigma Cat# D2650) at 100 mM were diluted in semi-log dilutions in DMSO ranging from 100 mM to 0.001 mM and DMSO only controls were included. The compound/DMSO dilutions were further diluted 1:250 in DMEM+10% FBS, and 12.5 μL of these dilutions were added in triplicates to cells of both treatment arms (with and without IFNγ). Final compound concentrations ranged from 100 μM to 0.001 μM with a final DMSO concentration of 0.1%. Compounds were only dosed in the inner 240 wells, avoiding the outer 2-well perimeter of the plate to minimize edge effects. Finally, the plate was loaded into an IncuCyte® S3 Live Cell Analysis System (Essen Bioscience-Sartorius, Ann Arbor, Mich.) maintained in a 37° C. +5% CO2 incubator, allowed to equilibrate for 2 hours, and imaged every 6 hours for 5 days. Confluence over time for compound dilutions in the presence and absence of IFNγ was measured. Growth inhibition values were obtained when the “DMSO/no IFNγ” control reached confluence >95%. At these time points, the percent growth inhibition of each compound at the indicated concentration was calculated relative to the “DMSO/with IFNγ” control.

[2] = target: T1, His tagged full-length PTP1B protein (Homo sapiens, UniProt P18031); assay: Mobility Shift Assay (MSA) used to determine potency of PTP1B inhibitors; assay type: biochemical; conditions: Table 2
T1 construct: made in house
T1 sequence (P18031 with tags, fused parts or gaps): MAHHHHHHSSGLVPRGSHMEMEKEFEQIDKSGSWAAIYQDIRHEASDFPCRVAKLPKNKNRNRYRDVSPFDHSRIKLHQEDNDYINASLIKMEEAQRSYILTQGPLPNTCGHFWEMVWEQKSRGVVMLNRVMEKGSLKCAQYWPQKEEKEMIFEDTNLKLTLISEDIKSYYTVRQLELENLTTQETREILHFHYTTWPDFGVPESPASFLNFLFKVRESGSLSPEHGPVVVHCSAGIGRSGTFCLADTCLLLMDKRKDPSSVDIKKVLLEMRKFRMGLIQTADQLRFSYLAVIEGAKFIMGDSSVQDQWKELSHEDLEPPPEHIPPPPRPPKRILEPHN
Procedure: The enzymatic assay used to determine activity is a mobility shift assay using a LabChip EZ Reader by Caliper Life Sciences. The enzymatic reaction was carried out in assay buffer (50 mM HEPES pH 7.5, 1 mM EGTA, 10 mM EDTA, 0.01% Tween® 20, and 2 mM DTT). […] The enzyme (at 0.5 nM) was incubated with compound for 10 minutes at room temperature. […] The % inhibition was then used to calculate the IC50 values.

[3] = test system: Pan T cells isolated from C57BL6 splenocytes; assay: T cell activation assay (CD25/CD69 flow cytometry); assay type: cell-based, mouse; conditions: with TCR stimulation; Table 5
Procedure: Example 295: T cell activation and function assays
Pan T cells were isolated from C57BL6 splenocytes using a MACS Pan T cell isolation kit II (Miltenyi Biotec, Auburn, Calif.) according to the manufacturer's instructions. Isolated T cells (200,000 cells/well in a 96 well flat-bottom plate) were cultured in RPMI 1640 supplemented with 10% FBS, […] 2-mercatoethanol, 100 U/mL penicillin, and 100 μg/mL streptomycin, and incubated with the indicated concentration of compound or DMSO in duplicates. After 1 hour, mouse T cell activator CD3/CD28 Dynabeads (ThermoFisher Scientific, Waltham, Mass.) were added at a 1:5 beads to cells ratio to stimulate the T cells for 2 or 3 days as outlined below. T cells with or without compound were incubated in the absence of T cell activator beads (media only) as control.
After 2 days of stimulation, activation status of T cells was assessed by flow cytometry. T cells were first subjected to Zombie Violet™ Fixable Viability dye (BioLegend, San Diego, Calif.) for dead cell exclusion, washed and then stained with BUV805 labeled anti-CD8, APC-R700 labeled anti-CD25 (both from BD Biosciences, San Jose, Calif.) and PE labeled anti-CD69 (BioLegend, San Diego, Calif.) antibodies. After staining, cells were fixed with 2% paraformaldehyde and acquired on a BD LSRFortessa™ X-20 flow cytometer (BD Biosciences, San Jose, Calif.) using BD FACSDiva™ software. Data was analyzed using FlowJo V10 (Flow Jo LLC, Ashland, OR). Dead cells were excluded and frequencies of activated CD8 T cells was reported as the frequency of CD25+ or CD69+ cells within the CD8+ population. The expression level of CD25 and CD69 indicates the activation status of cells on a per cell basis and was evaluated by the mean fluorescence intensities (MFI) of CD25 and CD69.

[4] = target: T2, His tagged PTPN2 (TC45) protein (Homo sapiens, UniProt P17706); assay: Mobility Shift Assay used to determine potency of PTPN2 inhibitors; assay type: biochemical; conditions: Table 2; read-out: PTPN2 MSA IC50
T2 construct: made in house
T2 sequence (P17706 with tags, fused parts or gaps isoform P17706-2): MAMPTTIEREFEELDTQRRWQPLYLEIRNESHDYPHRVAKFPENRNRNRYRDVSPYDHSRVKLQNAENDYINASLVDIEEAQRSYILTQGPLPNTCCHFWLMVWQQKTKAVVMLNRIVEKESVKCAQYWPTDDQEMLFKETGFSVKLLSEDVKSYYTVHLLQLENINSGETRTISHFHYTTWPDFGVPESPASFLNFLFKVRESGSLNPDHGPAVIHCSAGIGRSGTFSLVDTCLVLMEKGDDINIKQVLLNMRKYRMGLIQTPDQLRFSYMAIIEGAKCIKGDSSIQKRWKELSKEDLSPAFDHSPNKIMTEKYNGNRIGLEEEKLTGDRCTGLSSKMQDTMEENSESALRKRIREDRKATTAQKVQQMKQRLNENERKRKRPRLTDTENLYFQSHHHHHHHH
How it was run: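 His-tagged human PTPN2 (TC45), 0.5 nM, preincubated 10 min RT with compound (12-point, 1:3 dilution) in HEPES pH 7.5 buffer with EDTA/DTT; 2 µM OG488-labelled phospho-insulin-receptor peptide added, 10 min RT, then quenched. Dephosphorylation read by microfluidic mobility shift (ex 488/em 530 nm); IC50 from % inhibition.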

[5] = +0.5 ng/mL IFNγ, relative to DMSO/with IFNγ control, read-out: % B16F10 growth inhibition (+0.5 ng/mL IFNγ) @ 33 μM
[6] = no IFNγ, read-out: % B16F10 growth inhibition (no IFNγ) @ 33 μM

Compound | inhibition at 33 µM [1, 5] | inhibition at 33 µM [1, 6] | IC50 [2] | T cell activation and T cell function [3] | IC50 [4]
CC(C)NC(=O)Oc1ccc2cc(O)c(N3CC(=O)NS3(=O)=O)c(F)c2c1 [Compound 103, 8-fluoro-6-hydroxy-7-(1,1,4-trioxo-1λ^6,2,5-thiadiazolidin-2-yl)naphthalen-2-yl propan-2-ylcarbamate] | 60 to 90% | < 25% | 10 to 100 nM | – | –
O=C1CN(c2c(O)cc3ccc(C4=CCN(S(=O)(=O)C5CC5)C4)cc3c2F)S(=O)(=O)N1 [Compound 113, 5-{7-[1-(cyclopropanesulfonyl)-2,5-dihydro-1H-pyrrol-3-yl]-1-fluoro-3-hydroxynaphthalen-2-yl}-1λ^6,2,5-thiadiazolidine-1,1,3-trione] | – | – | < 1 nM | increased both T cell activation and T cell function | –
CC(C)(O)CCCc1ccc2cc(O)c(N3CC(=O)NS3(=O)=O)c(F)c2c1 [Compound 154, 5-[1-fluoro-3-hydroxy-7-(4-hydroxy-4-methylpentyl)naphthalen-2-yl]-1λ^6,2,5-thiadiazolidine-1,1,3-trione] | 60 to 90% | < 25% | 1 to 10 nM | – | < 1 nM
CP(C)(=O)N1CC=C(c2ccc3cc(O)c(N4CC(=O)NS4(=O)=O)c(F)c3c2)C1 [Compound 168, 5-{7-[1-(dimethylphosphoryl)-2,5-dihydro-1H-pyrrol-3-yl]-1-fluoro-3-hydroxynaphthalen-2-yl}-1λ^6,2,5-thiadiazolidine-1,1,3-trione] | > 90% | < 25% | 1 to 10 nM | – | –
O=C1CN(c2c(O)cc3ccc(CC4CCN(S(=O)(=O)C5CC5)CC4)cc3c2F)S(=O)(=O)N1 [Compound 257, 5-(7-{[1-(cyclopropanesulfonyl)piperidin-4-yl]methyl}-1-fluoro-3-hydroxynaphthalen-2-yl)-1λ^6,2,5-thiadiazolidine-1,1,3-trione] | 25 to 59% | < 25% | 10 to 100 nM | – | 1 to 10 nM
O=C1CN(c2c(O)cc3ccc(OC(F)F)cc3c2F)S(=O)(=O)N1 [Compound 260, 5-[7-(difluoromethoxy)-1-fluoro-3-hydroxynaphthalen-2-yl]-1λ^6,2,5-thiadiazolidine-1,1,3-trione] | – | – | 10 to 100 nM | increased both T cell activation and T cell function | –
CCCCOc1cc2c(F)c(N3CC(=O)NS3(=O)=O)c(O)cc2cc1O [Compound 363, 5-(7-butoxy-1-fluoro-3,6-dihydroxynaphthalen-2-yl)-1λ^6,2,5-thiadiazolidine-1,1,3-trione] | – | – | < 1 nM | – | < 1 nM
O=C1CN(c2c(O)cc3cc(O)c(OCCC4CCCC4)cc3c2F)S(=O)(=O)N1 [Compound 364, 5-[7-(2-cyclopentylethoxy)-1-fluoro-3,6-dihydroxynaphthalen-2-yl]-1λ^6,2,5-thiadiazolidine-1,1,3-trione] | – | – | < 1 nM | – | < 1 nM
O=C1CN(c2c(O)cc3cc(O)c(OCCCC(F)F)cc3c2F)S(=O)(=O)N1 [Compound 365, 5-[7-(4,4-difluorobutoxy)-1-fluoro-3,6-dihydroxynaphthalen-2-yl]-1λ^6,2,5-thiadiazolidine-1,1,3-trione] | – | – | < 1 nM | – | < 1 nM
CC(C)(C#N)CCOc1cc2c(F)c(N3CC(=O)NS3(=O)=O)c(O)cc2cc1O [Compound 366, 4-{[8-fluoro-3,6-dihydroxy-7-(1,1,4-trioxo-1λ^6,2,5-thiadiazolidin-2-yl)naphthalen-2-yl]oxy}-2,2-dimethylbutanenitrile] | – | – | < 1 nM | – | < 1 nM
O=C1CN(c2c(O)cc3cc(O)c(OCCC4CCOC4)cc3c2F)S(=O)(=O)N1 (stereo not shown) [Compound 367, 5-{1-fluoro-3,6-dihydroxy-7-[2-(oxolan-3-yl)ethoxy]naphthalen-2-yl}-1λ^6,2,5-thiadiazolidine-1,1,3-trione] | – | – | < 1 nM | – | < 1 nM
COCCCOc1cc2c(F)c(N3CC(=O)NS3(=O)=O)c(O)cc2cc1O [Compound 368, 5-[1-fluoro-3,6-dihydroxy-7-(3-methoxypropoxy)naphthalen-2-yl]-1λ^6,2,5-thiadiazolidine-1,1,3-trione] | – | – | < 1 nM | – | < 1 nM
O=C1CN(c2c(O)cc3ccc(C4=CCN(S(=O)(=O)CCCO)C4)cc3c2F)S(=O)(=O)N1 [Compound 369, 5-{1-fluoro-3-hydroxy-7-[1-(3-hydroxypropane-1-sulfonyl)-2,5-dihydro-1H-pyrrol-3-yl]naphthalen-2-yl}-1λ^6,2,5-thiadiazolidine-1,1,3-trione] | – | – | < 1 nM | – | < 1 nM
O=C1CN(c2c(O)cc3cc(O)c(Br)cc3c2F)S(=O)(=O)N1 [Compound 370, 5-(7-bromo-1-fluoro-3,6-dihydroxynaphthalen-2-yl)-1λ^6,2,5-thiadiazolidine-1,1,3-trione] | – | – | 1 to 10 nM | – | 1 to 10 nM
